“Also recorded” adds a separate entry of the source.
Experiments:
[1] = tested on: MC38 syngeneic tumor model; experiment: MC38 syngeneic tumor model, DGK inhibitor plus anti-PD-1 (RMP1-14); assay type: in vivo, C57Bl/6 mice; conditions: FIGS. 9A-9B, listed as Compound 3
Method: The in vivo effect of combining Compound 1 plus anti-PD-1 (RMP1-14, Bio X Cell) was assessed in the MC38 (CRL-1642, ATCC, Manassas, VA) syngeneic tumor model (see FIG. 3) in 6 to 8 weeks old C57Bl/6 mice (Jackson laboratories). Compound 1 was suspended in 5% N,N-dimethylacetamide (DMAC)+50 mM Citrate buffer in 0.5% methyl cellulose for oral administration and RMP1-14 was suspended in saline for intraperitoneal administration. Briefly, the left flank of the mice was shaved the day prior to subcutaneous inoculation with 2×10^6 MC38 cells suspended in PBS. On day 7, tumor dimensions were measured by Vernier calipers, and volume estimated by the formula Volume=[L (long dimension)×W^2 (short dimension)]/2. Mice were randomized into 6 groups of 10 mice of approximate mean volume (˜160 mm^3). Tumors were measured 3 times per week for the duration of the study. Starting day 7, mice were dosed with (i) vehicle; (ii) 250 μg/mouse of RMP1-14; (iii) 10 mg/kg of Compound 1; (iv) 1 mg/kg of Compound 1; (v) 10 mg/kg of Compound 1 and 250 μg/mouse of RMP1-14; or (vi) 1 mg/kg of Compound 1 and 250 μg/mouse of RMP1-14. Compound 1 was administered orally once daily (QD) for 12 days, while RMP1-14 was dosed every 5 days (for a total of 3 doses).
The in vivo effect of combining Compound 2 plus anti-PD-1 (RMP1-14, Bio X Cell) was assessed in the MC38 (CRL-1642, ATCC, Manassas, VA) syngeneic tumor model in 6 to 8 weeks old C57Bl/6 mice (Jackson laboratories). Compound 2 was suspended in 5% N,N-dimethylacetamide (DMAC)+50 mM Citrate buffer in 0.5% methyl cellulose for oral administration and RMP1-14 was suspended in saline for intraperitoneal administration. Briefly, the left flank of the mice was shaved the day prior to subcutaneous inoculation with 2×10^6 MC38 cells suspended in PBS. On day 7, tumor dimensions were measured by Vernier calipers, and volume estimated by the formula Volume=[L (long dimension)×W^2 (short dimension)]/2. Mice were randomized into 6 groups of 10 mice of approximate mean volume (˜130 mm^3). Tumors were measured 3 times per week for the duration of the study. Starting day 7, mice were dosed with (i) vehicle; (ii) 250 μg/mouse of RMP1-14 (Anti-PD-1); (iii) 0.5 mg/kg of Compound 2 QD; (iv) 0.5 mg/kg of Compound 2 […] and 250 μg/mouse of RMP1-14; (v) 0.5 mg/kg of Compound 2 Q2D; (vi) 0.5 mg/kg of Compound 2 […] and 250 μg/mouse of RMP1-14; (vii) 1.5 mg/kg of Compound 2 QD; (viii) 1.5 mg/kg of Compound 2 QD and 250 μg/mouse of RMP1-14 (ix) 1.5 mg/kg of Compound 2 Q2D; (x) 1.5 mg/kg of Compound 2 Q2D and 250 μg/mouse of RMP1-14; (xi) 1.5 mg/kg of Compound 2 Q3D; or (xii) 1.5 mg/kg of Compound 2 Q3D and 250 μg/mouse of RMP1-14.
The in vivo effect of combining 2-(4-((2S,5R)-4-(bis(4-fluorophenyl)methyl)-2,5-dimethylpiperazin-1-yl)-1H-[1,2,4]triazolo[3,4-b]purin-1-yl)-N,N-dimethylethane-1-amine (i.e., Compound 3) plus anti-PD-1 (RMP1-14, Bio X Cell) was assessed in the MC38 (CRL-1642, ATCC, Manassas, VA) syngeneic tumor model in 6 to 8 weeks old C57Bl/6 mice (Jackson laboratories). Compound 3 was suspended in 5% N,N-dimethylacetamide (DMAC)+50 mM Citrate buffer in 0.5% methyl cellulose for oral administration and RMP1-14 was suspended in saline for intraperitoneal administration. Briefly, the left flank of the mice was shaved the day prior to subcutaneous inoculation with 2×10^6 MC38 cells suspended in PBS. On day 7, tumor dimensions were measured by Vernier calipers, and volume estimated by the formula Volume=[L (long dimension)×W^2 (short dimension)]/2. Mice were randomized into 6 groups of 10 mice of approximate mean volume (˜200 mm^3). Tumors were measured 3 times per week for the duration of the study. Starting day 7, mice were dosed with (i) vehicle; (ii) 250 μg/mouse of RMP1-14 (Anti-PD-1); (iii) 10 mg/kg of Compound 3 QD; (iv) 10 mg/kg of Compound 3 QD and 250 μg/mouse of RMP1-14; (v) 30 mg/kg of Compound 3 QD; or (vi) 30 mg/kg of Compound 3 QD and 250 μg/mouse of RMP1-14.

DGKζ = DGKζ (Homo sapiens (Human), UniProt Q13574); experiment: In vitro DGKζ inhibition assay (ADP-Glo); assay type: biochemical; conditions: 0.4 nM DGKζ, 30 μM ATP, 20 μM DLG
Chain of DGKζ (Q13574 whole entry): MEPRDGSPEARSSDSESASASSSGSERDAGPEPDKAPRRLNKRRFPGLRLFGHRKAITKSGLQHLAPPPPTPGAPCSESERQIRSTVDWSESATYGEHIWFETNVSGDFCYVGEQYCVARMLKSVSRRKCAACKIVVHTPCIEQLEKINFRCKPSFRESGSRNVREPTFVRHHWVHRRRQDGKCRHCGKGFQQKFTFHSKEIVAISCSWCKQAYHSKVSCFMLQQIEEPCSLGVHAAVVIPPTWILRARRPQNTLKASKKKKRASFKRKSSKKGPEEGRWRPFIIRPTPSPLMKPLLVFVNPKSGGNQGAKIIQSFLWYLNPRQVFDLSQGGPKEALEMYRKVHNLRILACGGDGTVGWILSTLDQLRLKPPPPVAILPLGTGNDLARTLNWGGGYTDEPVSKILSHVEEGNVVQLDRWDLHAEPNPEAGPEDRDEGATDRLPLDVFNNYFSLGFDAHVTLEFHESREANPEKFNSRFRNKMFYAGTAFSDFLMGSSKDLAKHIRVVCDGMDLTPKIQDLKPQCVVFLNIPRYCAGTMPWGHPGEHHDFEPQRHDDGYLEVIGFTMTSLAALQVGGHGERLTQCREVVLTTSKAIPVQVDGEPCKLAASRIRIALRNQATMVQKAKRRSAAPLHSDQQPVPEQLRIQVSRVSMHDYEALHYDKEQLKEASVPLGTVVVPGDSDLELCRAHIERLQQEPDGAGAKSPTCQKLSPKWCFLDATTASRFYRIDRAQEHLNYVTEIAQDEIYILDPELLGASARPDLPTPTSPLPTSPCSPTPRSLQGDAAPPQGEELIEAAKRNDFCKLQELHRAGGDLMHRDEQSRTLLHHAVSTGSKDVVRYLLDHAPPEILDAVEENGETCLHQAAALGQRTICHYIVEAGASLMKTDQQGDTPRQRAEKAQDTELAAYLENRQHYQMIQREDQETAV
Method: (§1) The DGKα and DGKζ biochemical reactions were performed using His-tagged human recombinant enzymes (Signal Chem, DGKα, #D21-10BH; DGKζ, #D30-10H)) and DLG (Dilauroyl-sn-glycerol) lipid substrate (Signal Chem, #D430-59). ADP-Glo assay was performed using ADP-Glo™ kinase Assay kit (Promega, #V9104). The reactions were carried out in assay buffer containing 40 mM Tris, pH 7.5, 0.1% CHAPS, 0.1% Prionex, 40 mM NaCl, 5 mM MgCl2, 1 mM CaCl2, and 1 mM DTT. DGKα reactions contained 0.1 nM DGKα, 50 μM ATP, and 20 μM DLG. And DGKζ reactions contained 0.4 nM DGKζ, 30 μM ATP, and 20 μM DLG.
(§2) For compound inhibition studies, 40 nL test compound in DMSO was added to wells of white polystyrene plates in 384-well (Greiner, #784075) or 1536-well format (Greiner, #782075). Compounds were added with top concentration of 2 mM with 11 point, 3-fold dilution series. Enzyme solution (contains 2×DGK enzyme concentration in 1× assay buffer) was added to the plate in 2 μL/well volume, followed by 2 μL/well of substrate solution (contains 2× concentration of ATP and DLG substrate in 1× assay buffer). Plates were then centrifuged for 1 min at 1200 RPM and sealed or lidded. For 4 μL reaction volume, test compounds were therefore diluted 100× to final top concentration of 20 μM. After 90 minute incubation, reactions were quenched by addition of 2 μL/well Promega ADP-Glo Reagent, followed by centrifugation and lidding. After 60 min incubation, 2 μL/well Promega Kinase Detection Reagent was added, plates centrifuged, and incubated for 30 min. Plates were then read using Luminescence method on BMG PHERAstar FSX plate reader. Percent inhibition was calculated and IC50s were determined using 4-parameter fit in Genedata Screener. Labcyte Echo acoustic dispenser was used for compound addition, and Formulatrix Tempest liquid handler was used for all reagent dispenses.

DGKα = DGKα (Homo sapiens (Human), UniProt P23743); experiment: In vitro DGKα inhibition assay (ADP-Glo); assay type: biochemical; conditions: 0.1 nM DGKα, 50 μM ATP, 20 μM DLG
Chain of DGKα (P23743 whole entry): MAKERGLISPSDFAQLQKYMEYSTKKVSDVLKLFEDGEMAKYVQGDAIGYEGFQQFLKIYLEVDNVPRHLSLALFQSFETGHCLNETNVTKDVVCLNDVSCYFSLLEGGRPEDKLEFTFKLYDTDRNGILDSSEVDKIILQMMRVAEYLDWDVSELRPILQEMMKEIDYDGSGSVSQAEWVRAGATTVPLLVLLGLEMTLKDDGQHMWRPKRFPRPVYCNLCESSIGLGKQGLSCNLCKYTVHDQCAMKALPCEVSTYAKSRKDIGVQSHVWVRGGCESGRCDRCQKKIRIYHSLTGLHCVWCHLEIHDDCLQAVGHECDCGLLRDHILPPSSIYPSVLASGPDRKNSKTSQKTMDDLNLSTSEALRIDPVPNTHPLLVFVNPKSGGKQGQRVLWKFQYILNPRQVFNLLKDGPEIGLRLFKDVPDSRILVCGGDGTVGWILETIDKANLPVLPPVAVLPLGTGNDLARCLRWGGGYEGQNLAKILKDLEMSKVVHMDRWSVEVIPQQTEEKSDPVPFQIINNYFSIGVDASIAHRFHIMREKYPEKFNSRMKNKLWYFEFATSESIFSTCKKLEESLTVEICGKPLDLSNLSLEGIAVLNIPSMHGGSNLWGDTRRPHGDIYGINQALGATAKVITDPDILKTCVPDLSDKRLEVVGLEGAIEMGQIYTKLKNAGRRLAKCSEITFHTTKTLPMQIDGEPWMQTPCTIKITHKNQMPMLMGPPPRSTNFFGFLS
Method: as §1, §2

- IC50 (DGKζ): ≤ 20 nM
- IC50 (DGKα): ≤ 20 nM
Compound: C[C@@H]1CN(c2nc3nncn3c3c2ncn3CCN(C)C)[C@@H](C)CN1C(c1ccc(F)cc1)c1ccc(F)cc1 [Example 24, 2-(4-((2S,5R)-4-(Bis(4-fluorophenyl)methyl)-2,5-dimethylpiperazin-1-yl)-1H-[1,2,4]triazolo[3,4-b]purin-1-yl)-N,N-dimethylethane-1-amine]
- TGI, combined with anti-PD-1 mAb, vs anti-PD-1 control group ([1]; 30 mg/kg Compound 3 QD and 250 μg/mouse RMP1-14): statistically significant; also recorded: significant TGI
- TGI vs vehicle control group ([1]; all groups treated with Compound 3: 10 or 30 mg/kg QD, alone or with 250 μg/mouse RMP1-14): Tumor growth inhibition of Compound 3 was observed for all groups; also recorded: statistically significant TGI

— patent US20250186450A1, “COMBINATION THERAPY COMPRISING DGK INHIBITORS and PD-1/PD-L1 INHIBITORS” (Incyte Corporation, priority 2023, published 2025)
